Blank lines part the entries; values can stand above or below the compound they belong to.
Legend:
[1] = Hepatic intrinsic clearance following incubation in human liver microsomes; format: in vitro ADME; settings: NADPH regenerating system, 0-30 min, 37 °C
Method: Hepatic Extraction Ratio from Hepatic Intrinsic Clearance Following Incubation in Human Liver Microsomes
The general procedure consists of an automated incubation system and LC-MS/MS analysis with human liver microsomes. Human liver microsomes are thawed rapidly in a waterbath at 37° C. and kept on ice until use. The human liver microsomes are diluted with 50 mM potassium phosphate buffer pH 7.4 to a protein concentration of 0.55 mg/mL. Test compounds and positive controls (Verapamil and Dextromethorphan, positive controls for CYP3A4 for CYP2D6 isoforms, respectively) are dissolved in methanol (or other appropriate solvent, if necessary) in order to obtain a 5 mM solution which is further diluted to the concentration of 50 μM. The stock solutions are prepared immediately before the test.
5 μL of 50 μM test compounds and controls are added to 445 μL-of the 0.55 mg/mL microsomes solution and the incubation mixture are pre-warmed at 37° C. for 5 minutes.
The incubation reactions are initiated by adding 50 μL of pre-warmed NADPH regenerating system to the incubation mixtures. 50 μL-aliquots will be taken from the incubation mixtures at: 0, 3, 6, 9, 15 and 30 minutes and the reactions are stopped by adding 100 μL of ACN containing Rolipram, used as generic Internal Standard (1S). Samples are then diluted with 120 μL of Milli-Q water and centrifuged at 3000 rpm for 10 minutes, prior the LC-MS/MS analysis.
The integrated peak areas for test compounds at the selected time points are divided by the respective peak areas of the IS and the percent of parent remaining is calculated by normalizing the peak area ratio of parent to IS at 0 min. Observed rate constant (kobs) for parent degradation is calculated by determining the slope of the line of the graph of the natural log of percentage parent remaining versus time of incubation. From the rate of depletion (min-1) and volume of the incubation (mL), clearance is estimated. This is scaled for the protein in the incubation relative to that in the intact liver, for all species (mL/min/g liver).
Values for the Human in vitro Clint are expressed as mL/min/g liver.
Assuming a liver weight of 25.7 g/kg and a liver blood flow of 20.7 mL/min/kg, the hepatic extraction ratio, Eh, can be derived from the Human in vitro Clint:
E.g. a Human in vitro Clint of 2.4 mL/min/g liver corresponds to a hepatic extraction ratio of 75%.
Some compounds of the present invention were tested according to example 121.

NK1 receptor = target: T1, NK1 receptor (Homo sapiens, UniProt P25103); experiment: NK1 receptor mediated intracellular [Ca2+] mobilization in U251 MG cells using FLIPR; format: cell-based; settings: antagonist potency against Substance P (EC80), normalized to 100 nM Aprepitant, read-out: U251MG (FLIPR pIC50) (converted)
T1 construct: Measurement of NK1 Receptor Mediated Intracellular [Ca^2+]; Mobilization in U251 MG Cells Using FLIPR; endogenous in cells; host or cells: U251 MG cells
Method: Measurement of NK1 Receptor Mediated Intracellular [Ca^2+] Mobilization in U251 MG Cells Using FLIPR
U251 MG cells were seeded into black walled clear-bottom 384-well plates (Greiner Bio-One GmbH, Frickenhausen, Germany) at a density of 15,000 cells/well in 50 μl culture medium and cultured overnight in a 37° C. 5% CO2 incubator. The cells were then loaded with the calcium sensitive dye Fluo-4 (Invitrogen) at 1 μM in buffer, containing 0.04%
Pluronic F-127 (Sigma-Aldrich), and 2.5 mM probenecid (Sigma-Aldrich) for 60 min in a humidified atmosphere of 5% CO2. Thereafter, cells were washed three times in washing buffer containing 20 mM HEPES and 2.5 mM probenecid pH 7.3. Serial dilutions of test compounds in assay buffer containing 2% dimethyl sulfoxide (final concentration in the cell plate is 0.5% DMSO) and/or agonist were then automatically pipetted into each test well, and the peak fluorescence intensity was recorded (lex, 488 nm; lem, 540 nm) by the FLIPR instrument (Molecular Devices) for approximately 5 min. To measure antagonist potency, cell plates were first incubated with the test compound and intracellular fluorescence recorded for 5 minutes to check a potential agonist effect of the test compound. Cell plates were quickly removed from the FLIPR instrument and incubated for additional 10 minutes at 37° C. before being moved back to the FLIPR instrument for Substance P (EC80) addition. The response was measured as the peak relative fluorescence change after agonist addition.
The IC50 value is defined as the molar concentration of a test compound that produces a response midway between the fitted top and the fitted bottom. pIC50=−log IC50
Formula is listed as follows: Fit(% Effect calculated)=(A+((B−A)/(1+((C/X)^D)))) • A: bottom value • B: top value • C: […] • D: Hill slope coefficient
Ref: Sullivan E, Tucker E M, and Dale I L. Measurement of [Ca^2+] using the Fluorometric Imaging Plate Reader (FLIPR). Methods Mol Biol 114:125-133, 1999.
Compounds of the present invention were tested according to example 120.

T1 sequence (P25103 whole entry): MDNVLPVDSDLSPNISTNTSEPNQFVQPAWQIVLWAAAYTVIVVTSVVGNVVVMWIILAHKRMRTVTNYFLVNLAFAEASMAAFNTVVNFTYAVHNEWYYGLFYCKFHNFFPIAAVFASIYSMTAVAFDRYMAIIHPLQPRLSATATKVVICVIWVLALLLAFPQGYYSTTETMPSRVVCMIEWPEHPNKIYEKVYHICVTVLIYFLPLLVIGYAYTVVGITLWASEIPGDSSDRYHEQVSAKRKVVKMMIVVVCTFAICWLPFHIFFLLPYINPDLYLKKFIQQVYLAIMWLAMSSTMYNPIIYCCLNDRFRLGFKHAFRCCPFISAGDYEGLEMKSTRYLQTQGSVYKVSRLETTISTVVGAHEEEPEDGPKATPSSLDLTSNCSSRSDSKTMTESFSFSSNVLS

- Human in vitro Clint (mL/min/g liver) [1]: 2.8 mL/min/g liver
- IC50 (NK1 receptor): 0.603 nM
SMILES: Cc1ccccc1C1C2CCC(=O)N2CCN1C(=O)N(C)Cc1cc(C(F)(F)F)cc(C(F)(F)F)c1 (single isomer, unassigned) [Compound 18, N-{[3,5-bis(trifluoromethyl)phenyl]methyl}-N-methyl-1-(2-methylphenyl)-6-oxo-octahydropyrrolo[1,2-a]piperazine-2-carboxamide]

- Human in vitro Clint (mL/min/g liver) [1]: 2.9 mL/min/g liver
- IC50 (NK1 receptor): 0.224 nM
SMILES: Cc1ccccc1C1C2CC(CN3CCOCC3)C(=O)N2CCN1C(=O)N(C)Cc1cc(C(F)(F)F)cc(C(F)(F)F)c1 (single isomer, unassigned) [Compound 50]

- Human in vitro Clint (mL/min/g liver) [1]: 0.34 mL/min/g liver
- IC50 (NK1 receptor): 0.112 nM
SMILES: Cc1ccccc1C1C2CC(CO)C(=O)N2CCN1C(=O)N(C)[C@H](C)c1cc(C(F)(F)F)cc(C(F)(F)F)c1 (single isomer, unassigned) [Compound 56]

- Human in vitro Clint (mL/min/g liver) [1]: 11 mL/min/g liver
- IC50 (NK1 receptor): 0.324 nM
SMILES: Cc1ccccc1C1C2CCCN2CCN1C(=O)N(C)[C@H](C)c1cc(C(F)(F)F)cc(C(F)(F)F)c1 (single isomer, unassigned) [Compound 63]

- Human in vitro Clint (mL/min/g liver) [1]: 7.8 mL/min/g liver
- IC50 (NK1 receptor): 0.132 nM
SMILES: CCC(c1cc(C(F)(F)F)cc(C(F)(F)F)c1)N(C)C(=O)N1CCN2C(=O)C(CCO)(CCO)C[C@H]2[C@@H]1c1ccccc1C (stereo partly drawn) [Compound 83, (1S,8aS)-N-(1-(3,5-bis(trifluoromethyl)phenyl)propyl)-7,7-bis(2-hydroxyethyl)-N-methyl-6-oxo-1-o-tolylhexahydropyrrolo[1,2-a]pyrazine-2(1H)-carboxamide]

- Human in vitro Clint (mL/min/g liver) [1]: 8.5 mL/min/g liver
- IC50 (NK1 receptor): 0.0631 nM
SMILES: COc1cc([C@@H](C)N(C)C(=O)N2CCN3C(=O)C(CCO)(CCO)C[C@H]3[C@@H]2c2ccccc2C)cc(C(F)(F)F)c1 [Compound 91, (1S,8aS)-7,7-bis(2-hydroxyethyl)-N-((R)-1-(3-methoxy-5-(trifluoromethyl)phenyl)ethyl)-N-methyl-6-oxo-1-o-tolylhexahydropyrrolo[1,2-a]pyrazine-2(1H)-carboxamide]

- Human in vitro Clint (mL/min/g liver) [1]: 4.0 mL/min/g liver
- IC50 (NK1 receptor): 0.117 nM
SMILES: Cc1ccccc1[C@H]1[C@@H]2CC(CCO)(CCO)C(=O)N2CCN1C(=O)N(C)[C@H](C)c1cc(C(F)F)cc(C(F)(F)F)c1 [Compound 98, (1S,8aS)-N-((R)-1-(3-(difluoromethyl)-5-(trifluoromethyl)phenyl)ethyl)-7,7-bis(2-hydroxyethyl)-N-methyl-6-oxo-1-o-tolylhexahydropyrrolo[1,2-a]pyrazine-2(1H)-carboxamide]

- Human in vitro Clint (mL/min/g liver) [1]: 7.6 mL/min/g liver
- IC50 (NK1 receptor): 0.0398 nM
SMILES: Cc1ccccc1[C@H]1[C@@H]2CC(CCO)(CCO)C(=O)N2CCN1C(=O)N(C)[C@@H](C)c1cc(Cl)cc(C(F)(F)F)c1 [Compound 90, (1S,8aS)-N-((S)-1-(3-chloro-5-(trifluoromethyl)phenyl)ethyl)-7,7-bis(2-hydroxyethyl)-N-methyl-6-oxo-1-o-tolylhexahydropyrrolo[1,2-a]pyrazine-2(1H)-carboxamide]

Second part, the compound before the results:

SMILES: Cc1ccccc1C1C2CC(CN3CCOCC3)C(=O)N2CCN1C(=O)N(C)Cc1cc(C(F)(F)F)cc(C(F)(F)F)c1 (single isomer, unassigned) [Compound 41]
- Human in vitro Clint (mL/min/g liver) [1]: 2.9 mL/min/g liver
- IC50 (NK1 receptor): 0.224 nM

SMILES: Cc1ccccc1[C@H]1[C@@H]2CC(CCO)(CCO)C(=O)N2CCN1C(=O)N(C)[C@H](C)c1cc(F)cc(C(F)(F)F)c1 [Compound 93, (1S,8aS)-N-((R)-1-(3-fluoro-5-(trifluoromethyl)phenyl)ethyl)-7,7-bis(2-hydroxyethyl)-N-methyl-6-oxo-1-o-tolylhexahydropyrrolo[1,2-a]pyrazine-2(1H)-carboxamide]
- Human in vitro Clint (mL/min/g liver) [1]: 10 mL/min/g liver
- IC50 (NK1 receptor): 0.0794 nM

SMILES: COc1cc([C@@H](CO)N(C)C(=O)N2CCN3C(=O)C(CCO)(CCO)C[C@H]3[C@@H]2c2ccccc2C)cc(C(F)(F)F)c1 [Compound 95, (1S,8aS)-N-((S)-2-hydroxy-1-(3-methoxy-5-(trifluoromethyl)phenyl)ethyl)-7,7-bis(2-hydroxyethyl)-N-methyl-6-oxo-1-o-tolylhexahydropyrrolo[1,2-a]pyrazine-2(1H)-carboxamide]
- Human in vitro Clint (mL/min/g liver) [1]: 2.1 mL/min/g liver
- IC50 (NK1 receptor): 0.155 nM

SMILES: Cc1ccccc1[C@H]1[C@@H]2CC(CCO)(CCO)C(=O)N2CCN1C(=O)N(C)[C@H](CO)c1cc(C(F)(F)F)cc(C(F)(F)F)c1 [Compound 86, (1S,8aS)-N-((S)-1-(3,5-bis(trifluoromethyl)phenyl)-2-hydroxyethyl)-7,7-bis(2-hydroxyethyl)-N-methyl-6-oxo-1-o-tolylhexahydropyrrolo[1,2-a]pyrazine-2(1H)-carboxamide]
- Human in vitro Clint (mL/min/g liver) [1]: 2.8 mL/min/g liver
- IC50 (NK1 receptor): 0.129 nM

SMILES: Cc1cc([C@@H](C)N(C)C(=O)N2CCN3C(=O)CC[C@H]3[C@@H]2c2ccccc2C)cc(C(F)(F)F)c1 [Compound 107, (1S,8aS)-N-methyl-N-((R)-1-(3-methyl-5-(trifluoromethyl)phenyl)ethyl)-6-oxo-1-o-tolylhexahydropyrrolo[1,2-a]pyrazine-2(1H)-carboxamide]
- Human in vitro Clint (mL/min/g liver) [1]: 9.2 mL/min/g liver
- IC50 (NK1 receptor): 0.107 nM

SMILES: Cc1ccccc1C1C2CC(CCO)(CCO)C(=O)N2CCN1C(=O)N(C)Cc1cc(C(F)(F)F)cc(C(F)(F)F)c1 (single isomer, unassigned) [Compound 43, N-{[3,5-bis(trifluoromethyl)phenyl]methyl}-7,7-bis(2-hydroxyethyl)-N-methyl-1-(2-methylphenyl)-6-oxo-octahydropyrrolo[1,2-a]piperazine-2-carboxamide]
- Human in vitro Clint (mL/min/g liver) [1]: 3.7 mL/min/g liver
- IC50 (NK1 receptor): 0.525 nM

SMILES: Cc1ccccc1C1C2CCC(=O)N2CCN1C(=O)N(C)Cc1cccc(C(F)(F)F)c1 (single isomer, unassigned) [Compound 6, N-methyl-1-(2-methylphenyl)-6-oxo-N-{[3-(trifluoromethyl)phenyl]methyl}-Octahydropyrrolo[1,2-a]piperazine-2-carboxamide]
- IC50 (NK1 receptor): > 100 nM

SMILES: Cc1cc(C)cc(CN(C)C(=O)N2CCN3C(=O)CCC3C2c2ccccc2C)c1 (single isomer, unassigned) [Compound 1, N-[(3,5-dimethylphenyl)methyl]-N-methyl-1-(2-methylphenyl)-6-oxo-octahydropyrrolo[1,2-a]piperazine-2-carboxamide]
- IC50 (NK1 receptor): 6.46 nM

SMILES: Cc1ccccc1C1C2CC(CN3CCOCC3)C(=O)N2CCN1C(=O)N(C)[C@H](C)c1cc(C(F)(F)F)cc(C(F)(F)F)c1 (single isomer, unassigned) [Compound 71]
- IC50 (NK1 receptor): 28.2 nM

SMILES: COC(=O)C1(C)CC2C(c3ccccc3C)N(C(=O)N(C)Cc3cc(C(F)(F)F)cc(C(F)(F)F)c3)CCN2C1=O (single isomer, unassigned) [Compound 13, Methyl 2-({[3,5-bis(trifluoromethyl)phenyl]methyl}(methyl)carbamoyl)-7-methyl-1-(2-methylphenyl)-6-oxo-octahydropyrrolo{1,2-a}piperazine-7-carboxylate]
- IC50 (NK1 receptor): 4.17 nM

Source: patent US9181259B2 (LEO PHARMA A/S, priority 2012, dated 2015)
